Reference: paper PMC4575644 (ACS chemical biology, 2015)

Key:
Assay type in all cases: cell-based
[1] = biological target: T1, acid ceramidase (AC) (Rattus norvegicus, UniProt Q6P7S1); assay: enzyme inhibition IC50
T1 sequence (Q6P7S1 21-141): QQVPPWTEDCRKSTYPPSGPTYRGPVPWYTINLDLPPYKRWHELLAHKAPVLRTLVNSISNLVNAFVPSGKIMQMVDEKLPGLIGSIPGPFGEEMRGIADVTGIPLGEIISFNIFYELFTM
T1 sequence (Q6P7S1 142-394): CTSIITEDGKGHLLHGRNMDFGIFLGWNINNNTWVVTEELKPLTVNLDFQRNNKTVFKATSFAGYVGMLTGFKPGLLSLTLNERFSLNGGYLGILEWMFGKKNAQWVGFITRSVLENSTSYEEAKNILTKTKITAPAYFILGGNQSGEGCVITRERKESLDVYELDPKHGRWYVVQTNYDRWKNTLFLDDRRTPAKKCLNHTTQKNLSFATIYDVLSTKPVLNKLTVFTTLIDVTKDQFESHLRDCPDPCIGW

[2] = biological target: T2, N-acylethanolamine acid amidase (rNAAA) (Rattus norvegicus, UniProt Q5KTC7); assay: enzyme inhibition IC50
T2 sequence (Q5KTC7 34-130): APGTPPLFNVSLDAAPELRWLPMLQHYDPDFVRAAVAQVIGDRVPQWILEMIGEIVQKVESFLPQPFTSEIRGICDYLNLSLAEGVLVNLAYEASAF
T2 sequence (Q5KTC7 131-362): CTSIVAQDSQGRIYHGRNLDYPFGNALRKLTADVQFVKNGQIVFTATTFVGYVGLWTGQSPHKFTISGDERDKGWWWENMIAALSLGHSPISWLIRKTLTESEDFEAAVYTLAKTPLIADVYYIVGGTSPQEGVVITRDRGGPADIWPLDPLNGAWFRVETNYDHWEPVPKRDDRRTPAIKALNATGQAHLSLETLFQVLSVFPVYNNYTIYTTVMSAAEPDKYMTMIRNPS

[3] = biological target: T3, N-acylethanolamine acid amidase (hNAAA) (Homo sapiens, UniProt Q02083); assay: competitive ABPP against probe […] in intact NAAA-HEK293 cells
T3 sequence (Q02083 29-125): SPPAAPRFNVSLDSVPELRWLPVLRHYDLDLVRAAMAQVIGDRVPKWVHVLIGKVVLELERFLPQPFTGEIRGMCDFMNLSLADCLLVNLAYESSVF
T3 sequence (Q02083 126-359): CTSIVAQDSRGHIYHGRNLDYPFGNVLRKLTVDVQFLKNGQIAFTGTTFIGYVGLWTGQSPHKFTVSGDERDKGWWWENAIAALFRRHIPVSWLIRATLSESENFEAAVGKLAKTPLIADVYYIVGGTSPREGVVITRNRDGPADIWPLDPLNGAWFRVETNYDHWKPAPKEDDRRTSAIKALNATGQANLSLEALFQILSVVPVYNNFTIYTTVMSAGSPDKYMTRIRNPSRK

With `C#CCCCCCCCCCOC(=O)N[C@H]1CNC1=O` [compound 1, undec-10-ynyl N-[(3S)-2-oxoazetidin-3-yl]carbamate] the IC50 [1] was 1200 nM and the IC50 [2] was 13 nM.
`C[C@@H]1OC(=O)[C@@H]1NC(=O)OCCCCCc1ccccc1` [ARN077, 5-phenylpentyl N-[(2S,3R)-2-methyl-4-oxo-oxetan-3-yl]carbamate] was tested, and the “competitive ABPP against probe 1 in intact NAAA-HEK293 cells (40 μM)” value [3] was “In either case, a decrease in signal intensity was observed, but a more pronounced masking of NAAA was noted”.
